Laboratory results taken from the NIST ThermoML archive (doi:10.1021/acs.jced.9b00371).

Conditions: Liquid, Brillouin light scattering method

CCCCCCCC(=O)OC [methyl octanoate]
Conditions	speed of sound [m/s]
438.55 K, 100 kPa	775.1
438.61 K, 1000 kPa	780.2
438.61 K, 10010 kPa	866.1
438.81 K, 7000 kPa	838.7
438.87 K, 5000 kPa	823.4
438.94 K, 3010 kPa	803.1
447.87 K, 1010 kPa	754.6
447.88 K, 5000 kPa	793.5
447.92 K, 7000 kPa	813.8
447.96 K, 3010 kPa	776.7
447.96 K, 10000 kPa	841
448.01 K, 110 kPa	744.4
457.92 K, 1000 kPa	724.7
458.07 K, 5010 kPa	760.9
458.12 K, 7010 kPa	782.2
458.17 K, 3000 kPa	744.1
458.18 K, 10010 kPa	810.7
467.43 K, 10010 kPa	784.5
467.58 K, 7010 kPa	759.7
467.9 K, 5000 kPa	738.9
468.47 K, 1010 kPa	694.8
468.68 K, 3000 kPa	713.7
476.82 K, 5010 kPa	710.8
477 K, 10010 kPa	759.6
477.06 K, 1000 kPa	665
477.26 K, 7010 kPa	729
477.88 K, 3010 kPa	685.8
486.8 K, 1000 kPa	631
486.87 K, 3000 kPa	654.3
486.92 K, 5010 kPa	682
486.96 K, 7010 kPa	700
487 K, 10010 kPa	738.2
498.13 K, 3010 kPa	625.4
498.28 K, 7000 kPa	667.5
498.28 K, 10000 kPa	705
498.41 K, 5000 kPa	644.1
498.83 K, 1000 kPa	596.6
507.85 K, 1010 kPa	568.9
507.87 K, 7000 kPa	646.1
507.89 K, 3010 kPa	596.3
507.91 K, 5010 kPa	620.4
507.91 K, 10000 kPa	680.6
517.71 K, 3000 kPa	567.5
517.73 K, 1000 kPa	534.7
517.79 K, 7000 kPa	619
517.81 K, 5000 kPa	594.2
518.17 K, 10000 kPa	658.9
527.51 K, 7010 kPa	600
527.6 K, 1010 kPa	500
527.66 K, 3010 kPa	537.5
528.05 K, 10000 kPa	631.9
528.28 K, 5010 kPa	569.1
537.38 K, 1000 kPa	472.9
537.57 K, 7000 kPa	569.9
537.63 K, 3010 kPa	511.3
537.67 K, 5000 kPa	543.3
537.72 K, 9990 kPa	609.6
547.06 K, 1000 kPa	438.8
547.13 K, 5010 kPa	516
547.47 K, 10010 kPa	583.9
547.67 K, 7000 kPa	544
547.87 K, 3000 kPa	480.9
557.84 K, 1000 kPa	403.8
557.94 K, 5010 kPa	489.3
558.16 K, 7000 kPa	515.9
558.18 K, 10010 kPa	561.2
558.2 K, 3000 kPa	448
567.35 K, 1010 kPa	371.2
567.7 K, 5000 kPa	461
567.81 K, 7000 kPa	495.4
567.91 K, 3010 kPa	418.8
567.95 K, 10010 kPa	543.8
577.4 K, 3010 kPa	389.4
577.79 K, 5000 kPa	432.1
577.89 K, 7000 kPa	469.8
578.16 K, 10000 kPa	522.9
587.88 K, 3000 kPa	361.9
588.02 K, 5010 kPa	411.1
588.47 K, 7010 kPa	450.4
597.58 K, 3000 kPa	331.4
598.07 K, 7000 kPa	426.9
598.29 K, 5010 kPa	384.1
608.09 K, 7010 kPa	400.7
608.23 K, 5000 kPa	353.7
608.38 K, 3000 kPa	294.3
